According to ChEMBL document CHEMBL2440045, “The synthesis and anticancer activity of analogs of the indole phytoalexins brassinin, 1-methoxyspirobrassinol methyl ether and cyclobrassinin” (Bioorg Med Chem, 2013):
pIC50: −log10 of the molar value.

Test system: Jurkat
Assay: Antiproliferative activity against human Jurkat cells assessed as cell viability after 72 hrs by MTT assay
Type: functional, cell-based
Conditions: not given

pIC50	Structure (SMILES)
5.09	COc1ccc(NC2=NCc3c([nH]c4ccccc34)S2)cc1
5.12	FC(F)(F)c1cc(NC2=NCc3c([nH]c4ccccc34)S2)cc(C(F)(F)F)c1
5.13	O=[N+]([O-])c1ccc(NC2=NCc3c([nH]c4ccccc34)S2)cc1
5.01	Clc1ccc(NC2=NCc3c([nH]c4ccccc34)S2)cc1
5.02	c1ccc(NC2=NCc3c([nH]c4ccccc34)S2)cc1
5.10	Cc1ccc(NC2=NCc3c([nH]c4ccccc34)S2)cc1
5.00	FC(F)(F)c1ccc(NC2=NCc3c([nH]c4ccccc34)S2)cc1
5.08	Brc1ccc(NC2=NCc3c([nH]c4ccccc34)S2)cc1
4.53	CSC1=NCc2c([nH]c3ccccc23)S1 [CYCLOBRASSININ]

Structure (SMILES)	pIC50
CSC(=S)NCc1c[nH]c2ccccc12 [BRASSININ]	< 4.00

Test system: HeLa
Assay: Antiproliferative activity against human HeLa cells assessed as cell viability after 72 hrs by MTT assay
Type: functional, cell-based
Conditions: not given

pIC50	Structure (SMILES)
4.86	COc1ccc(NC2=NCc3c([nH]c4ccccc34)S2)cc1
4.16	FC(F)(F)c1cc(NC2=NCc3c([nH]c4ccccc34)S2)cc(C(F)(F)F)c1
5.03	O=[N+]([O-])c1ccc(NC2=NCc3c([nH]c4ccccc34)S2)cc1
4.49	Clc1ccc(NC2=NCc3c([nH]c4ccccc34)S2)cc1
4.57	c1ccc(NC2=NCc3c([nH]c4ccccc34)S2)cc1
4.56	Cc1ccc(NC2=NCc3c([nH]c4ccccc34)S2)cc1
4.14	FC(F)(F)c1ccc(NC2=NCc3c([nH]c4ccccc34)S2)cc1
4.52	Brc1ccc(NC2=NCc3c([nH]c4ccccc34)S2)cc1
4.24	CSC1=NCc2c([nH]c3ccccc23)S1 [CYCLOBRASSININ]

Structure (SMILES)	pIC50
CSC(=S)NCc1c[nH]c2ccccc12 [BRASSININ]	< 4.00

Test system: A549
Assay: Antiproliferative activity against human A549 cells assessed as cell viability after 72 hrs by MTT assay
Type: functional, cell-based
Conditions: A549, 72 h

pIC50	Structure (SMILES)
4.52	COc1ccc(NC2=NCc3c([nH]c4ccccc34)S2)cc1
4.15	FC(F)(F)c1cc(NC2=NCc3c([nH]c4ccccc34)S2)cc(C(F)(F)F)c1
4.49	O=[N+]([O-])c1ccc(NC2=NCc3c([nH]c4ccccc34)S2)cc1
5.13	Clc1ccc(NC2=NCc3c([nH]c4ccccc34)S2)cc1
4.47	c1ccc(NC2=NCc3c([nH]c4ccccc34)S2)cc1
4.51	Cc1ccc(NC2=NCc3c([nH]c4ccccc34)S2)cc1
4.39	FC(F)(F)c1ccc(NC2=NCc3c([nH]c4ccccc34)S2)cc1
4.49	Brc1ccc(NC2=NCc3c([nH]c4ccccc34)S2)cc1
4.15	CSC1=NCc2c([nH]c3ccccc23)S1 [CYCLOBRASSININ]

Structure (SMILES)	pIC50
CSC(=S)NCc1c[nH]c2ccccc12 [BRASSININ]	< 4.00

Test system: MCF7
Assay: Antiproliferative activity against human MCF7 cells assessed as cell viability after 72 hrs by MTT assay
Type: functional, cell-based
Conditions: MCF7, 72 h

pIC50	Structure (SMILES)
4.54	COc1ccc(NC2=NCc3c([nH]c4ccccc34)S2)cc1
4.41	FC(F)(F)c1cc(NC2=NCc3c([nH]c4ccccc34)S2)cc(C(F)(F)F)c1
5.11	O=[N+]([O-])c1ccc(NC2=NCc3c([nH]c4ccccc34)S2)cc1
4.52	Clc1ccc(NC2=NCc3c([nH]c4ccccc34)S2)cc1
4.50	c1ccc(NC2=NCc3c([nH]c4ccccc34)S2)cc1
4.49	Cc1ccc(NC2=NCc3c([nH]c4ccccc34)S2)cc1
4.45	FC(F)(F)c1ccc(NC2=NCc3c([nH]c4ccccc34)S2)cc1
4.53	Brc1ccc(NC2=NCc3c([nH]c4ccccc34)S2)cc1
4.14	CSC1=NCc2c([nH]c3ccccc23)S1 [CYCLOBRASSININ]

Structure (SMILES)	pIC50
CSC(=S)NCc1c[nH]c2ccccc12 [BRASSININ]	< 4.00

Test system: A549
Assay: Selectivity index, ratio of IC50 for HUVEC to IC50 for human A549 cells
Conditions: not given

Structure (SMILES)	Ratio IC50
COc1ccc(NC2=NCc3c([nH]c4ccccc34)S2)cc1	1.7
FC(F)(F)c1cc(NC2=NCc3c([nH]c4ccccc34)S2)cc(C(F)(F)F)c1	0.7
O=[N+]([O-])c1ccc(NC2=NCc3c([nH]c4ccccc34)S2)cc1	1.8
Clc1ccc(NC2=NCc3c([nH]c4ccccc34)S2)cc1	1.1
c1ccc(NC2=NCc3c([nH]c4ccccc34)S2)cc1	>2.9
Cc1ccc(NC2=NCc3c([nH]c4ccccc34)S2)cc1	>3.2
FC(F)(F)c1ccc(NC2=NCc3c([nH]c4ccccc34)S2)cc1	1.7
Brc1ccc(NC2=NCc3c([nH]c4ccccc34)S2)cc1	2
CSC1=NCc2c([nH]c3ccccc23)S1 [CYCLOBRASSININ]	0.8

Test system: MDA-MB-231
Assay: Antiproliferative activity against human MDA-MB-231 cells assessed as cell viability after 72 hrs by MTT assay
Type: functional, cell-based
Conditions: MDA-MB-231, 72 h

pIC50	Structure (SMILES)
5.14	COc1ccc(NC2=NCc3c([nH]c4ccccc34)S2)cc1
4.43	FC(F)(F)c1cc(NC2=NCc3c([nH]c4ccccc34)S2)cc(C(F)(F)F)c1
5.27	O=[N+]([O-])c1ccc(NC2=NCc3c([nH]c4ccccc34)S2)cc1
5.14	Clc1ccc(NC2=NCc3c([nH]c4ccccc34)S2)cc1
4.91	c1ccc(NC2=NCc3c([nH]c4ccccc34)S2)cc1
5.10	Cc1ccc(NC2=NCc3c([nH]c4ccccc34)S2)cc1
4.44	FC(F)(F)c1ccc(NC2=NCc3c([nH]c4ccccc34)S2)cc1
5.07	Brc1ccc(NC2=NCc3c([nH]c4ccccc34)S2)cc1
4.32	CSC1=NCc2c([nH]c3ccccc23)S1 [CYCLOBRASSININ]

Structure (SMILES)	pIC50
CSC(=S)NCc1c[nH]c2ccccc12 [BRASSININ]	< 4.00

Test system: not listed separately
Assay: Selectivity index, ratio of IC50 for HUVEC to IC50 for human MDA-MB-231 cells
Conditions: not given

Structure (SMILES)	Ratio IC50
COc1ccc(NC2=NCc3c([nH]c4ccccc34)S2)cc1	7
FC(F)(F)c1cc(NC2=NCc3c([nH]c4ccccc34)S2)cc(C(F)(F)F)c1	1.3
O=[N+]([O-])c1ccc(NC2=NCc3c([nH]c4ccccc34)S2)cc1	10.7
Clc1ccc(NC2=NCc3c([nH]c4ccccc34)S2)cc1	1.2
c1ccc(NC2=NCc3c([nH]c4ccccc34)S2)cc1	>8
Cc1ccc(NC2=NCc3c([nH]c4ccccc34)S2)cc1	>12.6
FC(F)(F)c1ccc(NC2=NCc3c([nH]c4ccccc34)S2)cc1	1.9
Brc1ccc(NC2=NCc3c([nH]c4ccccc34)S2)cc1	7.5
CSC1=NCc2c([nH]c3ccccc23)S1 [CYCLOBRASSININ]	1.2

Test system: MCF7
Assay: Selectivity index, ratio of IC50 for HUVEC to IC50 for human MCF7 cells
Conditions: not given

Structure (SMILES)	Ratio IC50
COc1ccc(NC2=NCc3c([nH]c4ccccc34)S2)cc1	1.8
FC(F)(F)c1cc(NC2=NCc3c([nH]c4ccccc34)S2)cc(C(F)(F)F)c1	1.3
O=[N+]([O-])c1ccc(NC2=NCc3c([nH]c4ccccc34)S2)cc1	7.5
Clc1ccc(NC2=NCc3c([nH]c4ccccc34)S2)cc1	0.3
c1ccc(NC2=NCc3c([nH]c4ccccc34)S2)cc1	3
Cc1ccc(NC2=NCc3c([nH]c4ccccc34)S2)cc1	3.1
FC(F)(F)c1ccc(NC2=NCc3c([nH]c4ccccc34)S2)cc1	1.9
Brc1ccc(NC2=NCc3c([nH]c4ccccc34)S2)cc1	2.2
CSC1=NCc2c([nH]c3ccccc23)S1 [CYCLOBRASSININ]	0.8

Test system: CCRF-CEM
Assay: Antiproliferative activity against human CCRF-CEM cells assessed as cell viability after 72 hrs by MTT assay
Type: functional, cell-based
Conditions: not given

pIC50	Structure (SMILES)
> 5.00	COc1ccc(NC2=NCc3c([nH]c4ccccc34)S2)cc1
5.12	FC(F)(F)c1cc(NC2=NCc3c([nH]c4ccccc34)S2)cc(C(F)(F)F)c1
5.30	O=[N+]([O-])c1ccc(NC2=NCc3c([nH]c4ccccc34)S2)cc1
4.53	Clc1ccc(NC2=NCc3c([nH]c4ccccc34)S2)cc1
5.05	c1ccc(NC2=NCc3c([nH]c4ccccc34)S2)cc1
5.30	Cc1ccc(NC2=NCc3c([nH]c4ccccc34)S2)cc1
5.00	FC(F)(F)c1ccc(NC2=NCc3c([nH]c4ccccc34)S2)cc1
> 5.00	Brc1ccc(NC2=NCc3c([nH]c4ccccc34)S2)cc1
4.58	CSC1=NCc2c([nH]c3ccccc23)S1 [CYCLOBRASSININ]

Structure (SMILES)	pIC50
CSC(=S)NCc1c[nH]c2ccccc12 [BRASSININ]	4.04

Test system: Jurkat
Assay: Selectivity index, ratio of IC50 for HUVEC to IC50 for human Jurkat cells
Conditions: not given

Structure (SMILES)	Ratio IC50
COc1ccc(NC2=NCc3c([nH]c4ccccc34)S2)cc1	6.2
FC(F)(F)c1cc(NC2=NCc3c([nH]c4ccccc34)S2)cc(C(F)(F)F)c1	6.6
O=[N+]([O-])c1ccc(NC2=NCc3c([nH]c4ccccc34)S2)cc1	7.8
Clc1ccc(NC2=NCc3c([nH]c4ccccc34)S2)cc1	0.8
c1ccc(NC2=NCc3c([nH]c4ccccc34)S2)cc1	>10
Cc1ccc(NC2=NCc3c([nH]c4ccccc34)S2)cc1	>12.5
FC(F)(F)c1ccc(NC2=NCc3c([nH]c4ccccc34)S2)cc1	6.9
Brc1ccc(NC2=NCc3c([nH]c4ccccc34)S2)cc1	7.8
CSC1=NCc2c([nH]c3ccccc23)S1 [CYCLOBRASSININ]	1.9

Test system: HUVEC
Assay: Cytotoxicity against HUVEC assessed as cell viability after 48 hrs by MTT assay
Type: cell-based
Conditions: Homo sapiens

Structure (SMILES)	pIC50
COc1ccc(NC2=NCc3c([nH]c4ccccc34)S2)cc1	4.29
FC(F)(F)c1cc(NC2=NCc3c([nH]c4ccccc34)S2)cc(C(F)(F)F)c1	4.30
O=[N+]([O-])c1ccc(NC2=NCc3c([nH]c4ccccc34)S2)cc1	4.24
Clc1ccc(NC2=NCc3c([nH]c4ccccc34)S2)cc1	5.07
c1ccc(NC2=NCc3c([nH]c4ccccc34)S2)cc1	< 4.00
Cc1ccc(NC2=NCc3c([nH]c4ccccc34)S2)cc1	< 4.00
FC(F)(F)c1ccc(NC2=NCc3c([nH]c4ccccc34)S2)cc1	4.16
Brc1ccc(NC2=NCc3c([nH]c4ccccc34)S2)cc1	4.19
CSC1=NCc2c([nH]c3ccccc23)S1 [CYCLOBRASSININ]	4.24

Test system: MDA-MB-231
Assay: Potency index, ratio of etoposide IC50 to compound IC50 for human MDA-MB-231 cells
Type: functional
Conditions: not given

Structure (SMILES)	Ratio IC50
COc1ccc(NC2=NCc3c([nH]c4ccccc34)S2)cc1	2
O=[N+]([O-])c1ccc(NC2=NCc3c([nH]c4ccccc34)S2)cc1	2
Clc1ccc(NC2=NCc3c([nH]c4ccccc34)S2)cc1	2
Cc1ccc(NC2=NCc3c([nH]c4ccccc34)S2)cc1	2
Brc1ccc(NC2=NCc3c([nH]c4ccccc34)S2)cc1	2

Test system: CCRF-CEM
Assay: Selectivity index, ratio of IC50 for HUVEC to IC50 for human CCRF-CEM cells
Conditions: not given

Structure (SMILES)	Ratio IC50
COc1ccc(NC2=NCc3c([nH]c4ccccc34)S2)cc1	>5.1
FC(F)(F)c1cc(NC2=NCc3c([nH]c4ccccc34)S2)cc(C(F)(F)F)c1	6.6
O=[N+]([O-])c1ccc(NC2=NCc3c([nH]c4ccccc34)S2)cc1	11.6
Clc1ccc(NC2=NCc3c([nH]c4ccccc34)S2)cc1	0.3
c1ccc(NC2=NCc3c([nH]c4ccccc34)S2)cc1	>11
Cc1ccc(NC2=NCc3c([nH]c4ccccc34)S2)cc1	>20
FC(F)(F)c1ccc(NC2=NCc3c([nH]c4ccccc34)S2)cc1	6.9
Brc1ccc(NC2=NCc3c([nH]c4ccccc34)S2)cc1	>6.5
CSC1=NCc2c([nH]c3ccccc23)S1 [CYCLOBRASSININ]	2.2

Test system: HeLa
Assay: Selectivity index, ratio of IC50 for HUVEC to IC50 for human HeLa cells
Conditions: not given

Structure (SMILES)	Ratio IC50
COc1ccc(NC2=NCc3c([nH]c4ccccc34)S2)cc1	3.7
FC(F)(F)c1cc(NC2=NCc3c([nH]c4ccccc34)S2)cc(C(F)(F)F)c1	0.7
O=[N+]([O-])c1ccc(NC2=NCc3c([nH]c4ccccc34)S2)cc1	6.2
Clc1ccc(NC2=NCc3c([nH]c4ccccc34)S2)cc1	0.3
c1ccc(NC2=NCc3c([nH]c4ccccc34)S2)cc1	>3.7
Cc1ccc(NC2=NCc3c([nH]c4ccccc34)S2)cc1	>3.6
FC(F)(F)c1ccc(NC2=NCc3c([nH]c4ccccc34)S2)cc1	0.9
Brc1ccc(NC2=NCc3c([nH]c4ccccc34)S2)cc1	2.2
CSC1=NCc2c([nH]c3ccccc23)S1 [CYCLOBRASSININ]	1
